Results taken from patent publication US10131644B2, “Aryl sultam derivatives as RORc modulators” (Genentech, Inc., priority 2014, dated 2018).

Biological target: T1, RORc (Homo sapiens, UniProt P51449)
T1 sequence (P51449 269-508 limits assumed): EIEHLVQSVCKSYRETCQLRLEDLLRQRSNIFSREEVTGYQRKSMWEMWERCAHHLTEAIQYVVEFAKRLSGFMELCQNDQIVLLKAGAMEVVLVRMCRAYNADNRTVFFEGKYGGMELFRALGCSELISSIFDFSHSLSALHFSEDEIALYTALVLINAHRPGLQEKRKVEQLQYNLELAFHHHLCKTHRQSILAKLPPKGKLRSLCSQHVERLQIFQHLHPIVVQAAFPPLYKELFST
Assay: In vitro RORc ligand binding assay (25-[3H]hydroxycholesterol displacement)
Details: IC50, IC50 values for RORc; unit inferred

Compound	IC50
C[C@H]1CC[C@H](c2ccccc2)S(=O)(=O)N1Cc1ccc(C2(C#N)CCOCC2)cc1 [Compound 30, 4-[4-((3S,6R)-3-Methyl-1,1-dioxo-6-phenyl-[1,2]thiazinan-2-ylmethyl)-phenyl]-tetrahydro-pyran-4-carbonitrile]	0.68 µM
COC(=O)C1(c2cc(F)c(CN3[C@@H](C)CC[C@H](c4ccccc4)S3(=O)=O)cc2F)CCC(=O)CC1 [Compound 120, methyl 1-[2,5-difluoro-4-[[(3S,6R)-3-methyl-1,1-dioxo-6-phenyl-thiazinan-2-yl]methyl]phenyl]-4-oxo-cyclohexanecarboxylate]	0.0061 µM
C[C@H]1CC[C@H](c2ccccc2)S(=O)(=O)N1Cc1ccc([C@]2(C#N)CC[C@@H](n3cnnc3)CC2)cc1 [Example 10, 1-[4-((3S,6R)-3-Methyl-1,1-dioxo-6-phenyl-[1,2]thiazinan-2-ylmethyl)-phenyl]-4-[1,2,4]triazol-4-yl-cyclohexanecarbonitrile]	0.15 µM
C[C@H]1CC[C@H](c2ccccc2)S(=O)(=O)N1Cc1ccc(C2(C#N)CCC3(CC2)OCCO3)cc1F [Example 21, 8-[3-Fluoro-4-((3S,6R)-3-methyl-1,1-dioxo-6-phenyl-[1,2]thiazinan-2-ylmethyl)-phenyl]-1,4-dioxa-spiro[4.5]decane-8-carbonitrile]	0.035 µM
C[C@H]1CC[C@H](c2ccccc2)S(=O)(=O)N1Cc1cc(F)c(C2(NCC(N)=O)COC2)cc1F [Compound 195, 2-[[3-[2,5-difluoro-4-[[(3S,6R)-3-methyl-1,1-dioxo-6-phenyl-thiazinan-yl]methyl]phenyl]oxetan-3-yl]amino]acetamide]	0.035 µM
C[C@H]1CC[C@H](c2ccccc2)S(=O)(=O)N1Cc1ccc(C2(C(N)=O)CCOCC2)cc1 [Compound 31, 4-[4-((3S,6R)-3-Methyl-1,1-dioxo-6-phenyl-[1,2]thiazinan-2-ylmethyl)-phenyl]-tetrahydro-pyran-4-carboxylic acid amide]	0.42 µM
COC(CNC1(c2cc(F)c(CN3[C@@H](C)CC[C@H](c4ccccc4)S3(=O)=O)cc2F)CCOCC1)OC [Compound 189, 4-[2,5-difluoro-4-[[(3S,6R)-3-methyl-1,1-dioxo-6-phenyl-thiazinan-2-yl]methyl]phenyl]-N-(2,2-dimethoxyethyl)tetrahydropyran-4-amine]	0.071 µM

Second part, the compound after the results:

IC50	Compound
0.0111 µM	C[C@H]1CC[C@H](c2ccccc2)S(=O)(=O)N1Cc1ccc(C2(C(N)=O)CC(F)(F)C2)cc1F [Compound 167, 3,3-difluoro-1-[3-fluoro-4-[[(3S,6R)-3-methyl-1,1-dioxo-6-phenyl-thiazinan-2-yl]methyl]phenyl]cyclobutanecarboxamide]
0.0105 µM	C[C@H]1CC[C@H](c2ccccc2)S(=O)(=O)N1Cc1ccc(C2(CCC(=O)N(C)C)CCOCC2)cc1F [Compound 85, 3-[4-[3-fluoro-4-[[(3S,6R)-3-methyl-1,1-dioxo-6-phenyl-thiazinan-2-yl]methyl]phenyl]tetrahydropyran-4-yl]-N,N-dimethyl-propanamide]
0.48 µM	C[C@H]1CC[C@H](c2ccccc2)S(=O)(=O)N1Cc1ccc(C2(C(=O)NCCN)CCOCC2)cc1F [Compound 52, N-(2-aminoethyl)-4-[3-fluoro-4-[[(3S,6R)-3-methyl-1,1-dioxo-6-phenyl-thiazinan-2-yl]methyl]phenyl]tetrahydropyran-4-carboxamide]
0.0395 µM	CCOC(=O)C[C@H](O)C1(c2ccc(CN3[C@@H](C)CC[C@H](c4ccccc4)S3(=O)=O)c(F)c2)CCOCC1 [Compound 115, ethyl (3S)-3-[4-[3-fluoro-4-[[(3S,6R)-3-methyl-1,1-dioxo-6-phenyl-thiazinan-2-yl]methyl]phenyl]tetrahydropyran-4-yl]-3-hydroxy-propanoate]
0.104 µM	CC(=O)N(C)CC1(c2ccc(CN3[C@@H](C)CC[C@H](c4ccccc4)S3(=O)=O)c(F)c2)CCOCC1 [Compound 80, N-[[4-[3-fluoro-4-[[(3S,6R)-3-methyl-1,1-dioxo-6-phenyl-thiazinan-2-yl]methyl]phenyl]tetrahydropyran-4-yl]methyl]-N-methyl-acetamide]
0.0758 µM	C[C@H]1CC[C@H](c2ccccc2)S(=O)(=O)N1Cc1ccc(C2(COCCCO)CCOCC2)cc1F [Compound 92, 3-[[4-[3-fluoro-4[[(3S,6R)-3-methyl-1,1-dioxo-6-phenyl-thiazinan-2-yl]methyl]phenyl]tetrahydropyran-4-yl]methoxy]propan-1-ol]
0.0238 µM	CCOC(=O)COCC1(c2ccc(CN3[C@@H](C)CC[C@H](c4ccccc4)S3(=O)=O)c(F)c2)CCOCC1 [Compound 104, ethyl 2-[[4-[3-fluoro-4-[[(3S,6R)-3-methyl-1,1-dioxo-6-phenyl-thiazinan-2-yl]methyl]phenyl]tetrahydropyran-4-yl]methoxy]acetate]
0.016 µM	C[C@H]1CC[C@H](c2ccccc2)S(=O)(=O)N1Cc1ccc(C2(COCC(N)=O)CCOCC2)cc1F [Compound 121]
